According to ChEMBL document CHEMBL1128895, “Synthesis and pharmacological characterization of A-80426: A putative novel antidepressant combining -2 antagonism with 5-HT uptake inhibition” (Bioorg Med Chem Lett, 1995):

Legend:
[1] = biological target: Serotonin 1 (5-HT1) receptor (Rattus norvegicus, UniProt P28564+P30940+P19327+P28565); assay: Compound was evaluated for its binding affinity to 5-hydroxytryptamine 1 receptor in rat brain using [3H]HT radioligand assay; assay type: tissue-based
[2] = biological target: Beta-1 adrenergic receptor (Rattus norvegicus, UniProt P18090); assay: Compound was evaluated for its binding affinity to beta-1 receptor in rat brain using [3H]- DHA radioligand assay; assay type: tissue-based
Rattus norvegicus [3] = species: Rattus norvegicus; assay: Evaluated for inhibition of dopamine, biogenic amine reuptake in synaptosomal rat brain preparations; assay type: functional
Rattus norvegicus [4] = species: Rattus norvegicus; assay: Evaluated for inhibition of norepinephrine, biogenic amine reuptake in synaptosomal rat brain preparations; assay type: functional
Rattus norvegicus [5] = species: Rattus norvegicus; assay: […] p-chloroamphetamine (PCA) induced hyperactivity in rats; assay type: functional
D(1A) dopamine receptor = D(1A) dopamine receptor (Rattus norvegicus, UniProt P18901); assay: Compound was evaluated for its binding affinity to Dopamine receptor D1 in rat striatum using [3H]- SCH-23390 radioligand assay; assay type: tissue-based
[6] = biological target: T1, Adrenergic receptor alpha-1 (Rattus norvegicus, UniProt P15823+P23944+P43140); assay: Evaluated for affinity at Alpha-1 adrenergic receptor of rat brain using [3H]prazosin as radioligand in radioligand binding assay
T1 sequence (P15823 whole entry): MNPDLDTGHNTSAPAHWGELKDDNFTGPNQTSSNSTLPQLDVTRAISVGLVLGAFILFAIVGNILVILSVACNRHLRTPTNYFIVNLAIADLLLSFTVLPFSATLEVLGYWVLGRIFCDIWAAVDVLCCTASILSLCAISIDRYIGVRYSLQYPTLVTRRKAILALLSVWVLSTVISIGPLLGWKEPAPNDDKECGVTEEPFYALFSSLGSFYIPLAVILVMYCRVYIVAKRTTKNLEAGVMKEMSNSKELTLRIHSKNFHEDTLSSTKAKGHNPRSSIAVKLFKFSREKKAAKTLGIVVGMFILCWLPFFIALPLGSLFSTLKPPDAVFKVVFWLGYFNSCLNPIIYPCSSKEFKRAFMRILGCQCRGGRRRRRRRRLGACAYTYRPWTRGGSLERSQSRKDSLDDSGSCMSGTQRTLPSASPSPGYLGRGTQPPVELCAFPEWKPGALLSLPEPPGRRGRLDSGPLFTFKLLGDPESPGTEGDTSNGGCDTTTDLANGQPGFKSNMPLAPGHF
T1 sequence (P23944 whole entry): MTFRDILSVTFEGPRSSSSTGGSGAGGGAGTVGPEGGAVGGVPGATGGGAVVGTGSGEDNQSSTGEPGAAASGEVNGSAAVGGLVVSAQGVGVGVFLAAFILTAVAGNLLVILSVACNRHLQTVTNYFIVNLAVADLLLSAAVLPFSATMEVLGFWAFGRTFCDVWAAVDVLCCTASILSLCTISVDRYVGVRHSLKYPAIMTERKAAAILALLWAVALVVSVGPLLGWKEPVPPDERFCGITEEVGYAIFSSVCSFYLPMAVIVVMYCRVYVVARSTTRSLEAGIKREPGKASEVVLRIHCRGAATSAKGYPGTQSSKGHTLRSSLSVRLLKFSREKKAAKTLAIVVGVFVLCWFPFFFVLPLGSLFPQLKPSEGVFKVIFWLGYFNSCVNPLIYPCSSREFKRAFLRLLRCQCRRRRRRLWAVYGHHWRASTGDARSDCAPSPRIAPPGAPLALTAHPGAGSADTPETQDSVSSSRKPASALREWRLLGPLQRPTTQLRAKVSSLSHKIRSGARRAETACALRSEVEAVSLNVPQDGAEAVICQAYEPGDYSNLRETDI
T1 sequence (P43140 whole entry): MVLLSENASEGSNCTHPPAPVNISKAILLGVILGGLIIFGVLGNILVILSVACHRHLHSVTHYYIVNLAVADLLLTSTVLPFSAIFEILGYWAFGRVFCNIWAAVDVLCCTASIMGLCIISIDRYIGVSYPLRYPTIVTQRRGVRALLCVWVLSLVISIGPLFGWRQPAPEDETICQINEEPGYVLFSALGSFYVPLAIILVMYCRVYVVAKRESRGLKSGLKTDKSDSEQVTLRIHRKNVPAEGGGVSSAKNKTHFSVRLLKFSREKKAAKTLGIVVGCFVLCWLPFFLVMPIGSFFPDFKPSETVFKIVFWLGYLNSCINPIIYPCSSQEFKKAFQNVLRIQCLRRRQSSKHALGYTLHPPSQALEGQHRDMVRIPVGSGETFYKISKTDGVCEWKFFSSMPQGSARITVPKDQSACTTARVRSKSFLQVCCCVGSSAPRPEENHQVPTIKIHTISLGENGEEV

Rattus norvegicus [7] = species: Rattus norvegicus; assay: […] reversal of passive avoidance deficit in olfactory bulbectomized rats; assay type: functional
[8] = biological target: T2, Adrenergic receptor alpha-2 (Rattus norvegicus, UniProt P22086+P19328+P22909); assay: Evaluated for affinity at Alpha-2 adrenergic receptor of rat cortex using [3H]rauwolscine as radioligand in radioligand binding assay
T2 sequence (P22086 whole entry): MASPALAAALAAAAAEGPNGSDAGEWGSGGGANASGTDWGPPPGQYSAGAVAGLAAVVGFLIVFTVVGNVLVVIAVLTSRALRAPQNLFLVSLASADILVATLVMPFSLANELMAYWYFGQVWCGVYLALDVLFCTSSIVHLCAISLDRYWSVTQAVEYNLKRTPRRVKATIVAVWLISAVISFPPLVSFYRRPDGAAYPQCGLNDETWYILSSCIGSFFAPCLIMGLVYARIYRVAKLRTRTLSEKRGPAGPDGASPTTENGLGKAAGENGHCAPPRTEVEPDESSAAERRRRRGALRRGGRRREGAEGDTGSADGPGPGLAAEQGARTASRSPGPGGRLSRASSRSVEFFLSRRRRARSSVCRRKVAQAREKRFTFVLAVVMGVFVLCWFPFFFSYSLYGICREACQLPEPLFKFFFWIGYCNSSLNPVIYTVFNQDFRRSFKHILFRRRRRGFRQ
T2 sequence (P19328 whole entry): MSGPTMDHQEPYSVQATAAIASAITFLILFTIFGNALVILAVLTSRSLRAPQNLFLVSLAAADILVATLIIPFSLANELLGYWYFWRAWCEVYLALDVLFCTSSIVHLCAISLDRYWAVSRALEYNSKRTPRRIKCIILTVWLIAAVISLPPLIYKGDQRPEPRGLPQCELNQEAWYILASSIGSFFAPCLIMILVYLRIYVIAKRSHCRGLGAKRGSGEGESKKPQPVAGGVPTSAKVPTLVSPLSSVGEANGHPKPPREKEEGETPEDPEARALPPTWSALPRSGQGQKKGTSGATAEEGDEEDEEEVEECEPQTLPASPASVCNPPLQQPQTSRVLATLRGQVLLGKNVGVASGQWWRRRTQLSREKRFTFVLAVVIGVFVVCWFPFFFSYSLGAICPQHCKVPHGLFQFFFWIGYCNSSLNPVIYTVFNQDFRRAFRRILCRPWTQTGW
T2 sequence (P22909 whole entry): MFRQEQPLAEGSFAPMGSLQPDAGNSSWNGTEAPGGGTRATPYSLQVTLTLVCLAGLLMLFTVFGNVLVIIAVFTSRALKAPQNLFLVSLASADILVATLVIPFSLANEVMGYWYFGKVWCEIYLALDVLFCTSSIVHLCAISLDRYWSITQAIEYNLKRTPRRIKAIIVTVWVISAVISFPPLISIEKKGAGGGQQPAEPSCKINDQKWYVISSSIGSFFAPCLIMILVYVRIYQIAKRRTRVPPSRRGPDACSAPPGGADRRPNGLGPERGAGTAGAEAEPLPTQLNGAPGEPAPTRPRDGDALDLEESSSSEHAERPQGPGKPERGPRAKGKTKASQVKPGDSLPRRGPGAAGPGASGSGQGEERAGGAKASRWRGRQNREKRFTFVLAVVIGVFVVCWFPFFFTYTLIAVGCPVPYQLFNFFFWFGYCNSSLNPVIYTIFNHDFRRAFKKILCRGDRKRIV

D(2) dopamine receptor = D(2) dopamine receptor (Rattus norvegicus, UniProt P61169); assay: Compound was evaluated for its binding affinity to Dopamine receptor D2 in rat brain using [3H]- spiroperidol radioligand assay; assay type: tissue-based
[9] = biological target: Serotonin 2 (5-HT2) receptor (Rattus norvegicus, UniProt P30994+P08909+P14842); assay: Compound was evaluated for its binding affinity to 5-hydroxytryptamine 2 receptor in rat cortex using [3H]ketanserin radioligand assay
[10] = biological target: T2, Adrenergic receptor alpha-2; assay: Evaluated for affinity at Alpha-2 adrenergic receptor of rat brain using [3H]rauwolscine as radioligand in radioligand binding assay
Rattus norvegicus [11] = species: Rattus norvegicus; assay: Evaluated for inhibition of 5-Hydroxytryptamine, biogenic amine reuptake in synaptosomal rat brain preparations; assay type: functional

Sequence of D(1A) dopamine receptor (P18901 whole entry): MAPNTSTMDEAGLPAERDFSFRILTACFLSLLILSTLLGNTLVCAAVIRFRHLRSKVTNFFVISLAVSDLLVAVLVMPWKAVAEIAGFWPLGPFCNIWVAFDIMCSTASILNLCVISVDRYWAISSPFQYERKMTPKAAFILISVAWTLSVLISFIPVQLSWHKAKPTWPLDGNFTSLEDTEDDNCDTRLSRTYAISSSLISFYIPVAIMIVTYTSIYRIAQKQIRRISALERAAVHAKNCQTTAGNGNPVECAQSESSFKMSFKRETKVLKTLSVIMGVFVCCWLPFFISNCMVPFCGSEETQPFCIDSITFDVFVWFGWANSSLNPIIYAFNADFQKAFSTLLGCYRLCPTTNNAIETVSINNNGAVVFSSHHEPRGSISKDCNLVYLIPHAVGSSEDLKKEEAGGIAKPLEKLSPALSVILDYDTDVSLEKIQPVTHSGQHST
Sequence of Beta-1 adrenergic receptor (P18090 whole entry): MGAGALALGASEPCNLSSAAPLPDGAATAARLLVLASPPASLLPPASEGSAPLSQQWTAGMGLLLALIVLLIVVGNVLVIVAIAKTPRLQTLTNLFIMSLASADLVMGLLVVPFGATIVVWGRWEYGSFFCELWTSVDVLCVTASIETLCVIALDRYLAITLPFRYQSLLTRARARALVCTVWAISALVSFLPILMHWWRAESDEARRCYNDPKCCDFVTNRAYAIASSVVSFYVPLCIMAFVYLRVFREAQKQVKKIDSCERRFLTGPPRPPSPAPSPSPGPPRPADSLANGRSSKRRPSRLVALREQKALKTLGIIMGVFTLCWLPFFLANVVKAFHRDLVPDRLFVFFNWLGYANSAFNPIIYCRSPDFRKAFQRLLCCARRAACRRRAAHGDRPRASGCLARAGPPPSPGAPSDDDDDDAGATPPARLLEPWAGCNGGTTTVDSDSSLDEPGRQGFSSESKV
Sequence of D(2) dopamine receptor (P61169 whole entry): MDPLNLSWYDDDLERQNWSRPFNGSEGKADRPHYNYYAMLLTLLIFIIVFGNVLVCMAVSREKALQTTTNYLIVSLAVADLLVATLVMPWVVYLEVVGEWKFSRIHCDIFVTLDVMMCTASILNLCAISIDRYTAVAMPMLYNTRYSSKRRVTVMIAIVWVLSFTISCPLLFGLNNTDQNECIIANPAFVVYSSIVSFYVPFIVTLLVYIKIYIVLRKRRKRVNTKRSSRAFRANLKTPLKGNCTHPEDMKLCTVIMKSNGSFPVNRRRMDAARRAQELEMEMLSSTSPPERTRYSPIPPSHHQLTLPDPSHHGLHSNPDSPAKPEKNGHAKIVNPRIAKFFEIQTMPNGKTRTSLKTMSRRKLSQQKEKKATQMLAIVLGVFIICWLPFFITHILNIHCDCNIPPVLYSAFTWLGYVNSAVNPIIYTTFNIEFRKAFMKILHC

SMILES | Ki [1] [nM] | Ki [2] [nM] | IC50 (Rattus norvegicus [3]) [nM] | IC50 (Rattus norvegicus [4]) [nM] | ED50 (Rattus norvegicus [5]) [mg/kg] | Ki (D(1A) dopamine receptor) [nM] | Ki [6] [nM] | ED50 (Rattus norvegicus [7]) [mg/kg] | Ki [8] [nM] | Ki (D(2) dopamine receptor) [nM] | Ki [9] [nM] | Ki [10] [nM] | IC50 (Rattus norvegicus [11]) [nM]
COc1cccc2c1CCC[C@H]2CN(C)CCc1ccc2ccoc2c1 | 2970 | 836 | 2940 | 865 | 13.3 | 744 | 110 | 7.1 | 2.01 | 52 | 144 | – | –
COc1cccc2c1CCC[C@@H]2CN(C)CCc1ccc2ccoc2c1 | – | – | 4750 | 476 | – | – | 241 | – | – | – | – | 110 | –
CNCCC(Oc1ccc(C(F)(F)F)cc1)c1ccccc1 (stereo unspecified) [FLUOXETINE] | – | – | 16200 | 3280 | 11.7 | – | – | 12.1 | – | – | – | – | 308
Fc1ccc([C@@H]2CCNC[C@H]2COc2ccc3c(c2)OCO3)cc1 [PAROXETINE] | – | – | 7620 | 160 | – | – | 5320 | – | – | – | – | 6310 | –
COC(=O)[C@H]1[C@H]2C[C@H]3c4[nH]c5ccccc5c4CCN3C[C@H]2CC[C@@H]1O [RAUWOLSCINE] | – | – | > 10000 | > 10000 | – | – | – | – | – | – | – | – | –
